± gives the uncertainty stated by the source.
Test: xn = mol fraction of the nth substance listed

SMILES: C[C@H](N)C(=O)N[C@@H](C)C(=O)O + O
- viscosity (305.15 K, 101 kPa, x1 = 3.87e-05): 0.7669 ± 0.0095 mPa·s
- viscosity (305.15 K, 101 kPa, x1 = 7.58e-05): 0.7674 ± 0.0095 mPa·s
- viscosity (305.15 K, 101 kPa, x1 = 0.000107): 0.7681 ± 0.0095 mPa·s
- viscosity (305.15 K, 101 kPa, x1 = 0.00015): 0.7688 ± 0.0095 mPa·s
- viscosity (305.15 K, 101 kPa, x1 = 0.000172): 0.7719 ± 0.0095 mPa·s
- viscosity (305.15 K, 101 kPa, x1 = 0.0002106): 0.7741 ± 0.0096 mPa·s
- viscosity (305.15 K, 101 kPa, x1 = 0.0002561): 0.7782 ± 0.0096 mPa·s
- viscosity (305.15 K, 101 kPa, x1 = 0.0002871): 0.7795 ± 0.0096 mPa·s
- viscosity (305.15 K, 101 kPa, x1 = 0.0003202): 0.7798 ± 0.0096 mPa·s
- viscosity (305.15 K, 101 kPa, x1 = 0.0003571): 0.7828 ± 0.0097 mPa·s
- viscosity (310.15 K, 101 kPa, x1 = 3.87e-05): 0.7029 ± 0.0087 mPa·s
- viscosity (310.15 K, 101 kPa, x1 = 7.58e-05): 0.7032 ± 0.0087 mPa·s
- viscosity (310.15 K, 101 kPa, x1 = 0.000107): 0.7033 ± 0.0087 mPa·s
- viscosity (310.15 K, 101 kPa, x1 = 0.00015): 0.7061 ± 0.0087 mPa·s
- viscosity (310.15 K, 101 kPa, x1 = 0.000172): 0.7067 ± 0.0087 mPa·s
- viscosity (310.15 K, 101 kPa, x1 = 0.0002106): 0.7084 ± 0.0087 mPa·s
- viscosity (310.15 K, 101 kPa, x1 = 0.0002561): 0.7089 ± 0.0088 mPa·s
- viscosity (310.15 K, 101 kPa, x1 = 0.0002871): 0.7115 ± 0.0088 mPa·s
- viscosity (310.15 K, 101 kPa, x1 = 0.0003202): 0.7139 ± 0.0088 mPa·s
- viscosity (310.15 K, 101 kPa, x1 = 0.0003571): 0.7167 ± 0.0089 mPa·s
- viscosity (315.15 K, 101 kPa, x1 = 3.87e-05): 0.6416 ± 0.0079 mPa·s
- viscosity (315.15 K, 101 kPa, x1 = 7.58e-05): 0.6452 ± 0.008 mPa·s
- viscosity (315.15 K, 101 kPa, x1 = 0.000107): 0.6473 ± 0.008 mPa·s
- viscosity (315.15 K, 101 kPa, x1 = 0.00015): 0.6487 ± 0.008 mPa·s
- viscosity (315.15 K, 101 kPa, x1 = 0.000172): 0.6499 ± 0.008 mPa·s
- viscosity (315.15 K, 101 kPa, x1 = 0.0002106): 0.6499 ± 0.008 mPa·s
- viscosity (315.15 K, 101 kPa, x1 = 0.0002561): 0.6519 ± 0.0081 mPa·s
- viscosity (315.15 K, 101 kPa, x1 = 0.0002871): 0.6548 ± 0.0081 mPa·s
- viscosity (315.15 K, 101 kPa, x1 = 0.0003202): 0.6573 ± 0.0081 mPa·s
- viscosity (315.15 K, 101 kPa, x1 = 0.0003571): 0.6608 ± 0.0082 mPa·s

SMILES: CCOC(=O)CCl + c1ccccc1
- viscosity (298.15 K, 101.3 kPa, x1 = 0.0985): 0.634 ± 0.006 mPa·s
- viscosity (298.15 K, 101.3 kPa, x1 = 0.1983): 0.659 ± 0.007 mPa·s
- viscosity (298.15 K, 101.3 kPa, x1 = 0.2974): 0.694 ± 0.007 mPa·s
- viscosity (298.15 K, 101.3 kPa, x1 = 0.3925): 0.734 ± 0.007 mPa·s
- viscosity (298.15 K, 101.3 kPa, x1 = 0.5049): 0.781 ± 0.007 mPa·s
- viscosity (298.15 K, 101.3 kPa, x1 = 0.6023): 0.834 ± 0.008 mPa·s
- viscosity (298.15 K, 101.3 kPa, x1 = 0.696): 0.886 ± 0.008 mPa·s
- viscosity (298.15 K, 101.3 kPa, x1 = 0.7994): 0.949 ± 0.008 mPa·s
- viscosity (298.15 K, 101.3 kPa, x1 = 0.8998): 1.019 ± 0.009 mPa·s
- viscosity (303.15 K, 101.3 kPa, x1 = 0.0985): 0.592 ± 0.006 mPa·s
- viscosity (303.15 K, 101.3 kPa, x1 = 0.1983): 0.616 ± 0.006 mPa·s
- viscosity (303.15 K, 101.3 kPa, x1 = 0.2974): 0.649 ± 0.007 mPa·s
- viscosity (303.15 K, 101.3 kPa, x1 = 0.3925): 0.687 ± 0.007 mPa·s
- viscosity (303.15 K, 101.3 kPa, x1 = 0.5049): 0.731 ± 0.007 mPa·s
- viscosity (303.15 K, 101.3 kPa, x1 = 0.6023): 0.779 ± 0.007 mPa·s
- viscosity (303.15 K, 101.3 kPa, x1 = 0.696): 0.825 ± 0.008 mPa·s
- viscosity (303.15 K, 101.3 kPa, x1 = 0.7994): 0.883 ± 0.008 mPa·s
- viscosity (303.15 K, 101.3 kPa, x1 = 0.8998): 0.948 ± 0.009 mPa·s
- viscosity (308.15 K, 101.3 kPa, x1 = 0.0985): 0.549 ± 0.006 mPa·s
- viscosity (308.15 K, 101.3 kPa, x1 = 0.1983): 0.574 ± 0.006 mPa·s
- viscosity (308.15 K, 101.3 kPa, x1 = 0.2974): 0.605 ± 0.006 mPa·s
- viscosity (308.15 K, 101.3 kPa, x1 = 0.3925): 0.64 ± 0.007 mPa·s
- viscosity (308.15 K, 101.3 kPa, x1 = 0.5049): 0.681 ± 0.007 mPa·s
- viscosity (308.15 K, 101.3 kPa, x1 = 0.6023): 0.723 ± 0.007 mPa·s
- viscosity (308.15 K, 101.3 kPa, x1 = 0.696): 0.765 ± 0.007 mPa·s
- viscosity (308.15 K, 101.3 kPa, x1 = 0.7994): 0.82 ± 0.008 mPa·s
- viscosity (308.15 K, 101.3 kPa, x1 = 0.8998): 0.878 ± 0.008 mPa·s
